The text below walks through data of patent publication US8901118B2, “Compounds and methods for kinase modulation, and indications therefor” (Plexxikon Inc., priority 2010, dated 2014).

Where only a bound is given, the exact number is not on record here.

One experiment deals with CYP2C19 (Homo sapiens, UniProt P33261). The experiment in a line: CYP2C19 inhibition (fluorescent substrate CEC). It is filed as in vitro ADME. The settings on record: read-out: Cyp IC50 2C19. As for the experimental part: CYP (Cytochrome P450) enzymes are the major drug metabolizing enzymes present in the liver. The inhibition of CYP enzyme activity (IC50) for each of CYP1A2, CYP2C19, CYP2C9, CYP2D6, CYP3A4(BFC) and CYP3A4(BQ) is determined for compounds, where inhibition of metabolism of a known substrate leads to a decrease in the fluorescence of the metabolized product. The fluorescence of the product is monitored as a function of compound concentration. Compounds are dissolved in DMSO to a concentration of 100 mM. These are diluted 1 μL into 82 μL of acetonitrile. An 11 μL aliquot of this solution is then added to 204 μL of cofactor mix (1.3% NADPH Regeneration system Solution A, 1.04% NADPH Regeneration system Solution B from BD Biosciences, 5% acetonitrile and 0.05% DMSO). These are then serially diluted 1:1 (160 μL to 160 μL co-factor mix) for a total of 10 points. A 10 μL aliquot of this final mixture is dispensed into 384 well assay plates and incubated for 10 minutes at 37° C. […] Assay plates are incubated at 37° C. (CYP1A2-15 min; CYP2C9-45 min; CYP2C19, 2D6 and 3A4-30 min) and read in a Tecan Safire 2 plate reader (CYP1A2, 2C19 and 3A4 409 ex/460 em; CYP2C9 and 2D6 409 ex/530 em). The signal versus compound concentration is used to determine the IC50. The enzymes and substrates for this assay are obtained from BD Biosciences.
CYP2C19, sequence (P33261 whole entry): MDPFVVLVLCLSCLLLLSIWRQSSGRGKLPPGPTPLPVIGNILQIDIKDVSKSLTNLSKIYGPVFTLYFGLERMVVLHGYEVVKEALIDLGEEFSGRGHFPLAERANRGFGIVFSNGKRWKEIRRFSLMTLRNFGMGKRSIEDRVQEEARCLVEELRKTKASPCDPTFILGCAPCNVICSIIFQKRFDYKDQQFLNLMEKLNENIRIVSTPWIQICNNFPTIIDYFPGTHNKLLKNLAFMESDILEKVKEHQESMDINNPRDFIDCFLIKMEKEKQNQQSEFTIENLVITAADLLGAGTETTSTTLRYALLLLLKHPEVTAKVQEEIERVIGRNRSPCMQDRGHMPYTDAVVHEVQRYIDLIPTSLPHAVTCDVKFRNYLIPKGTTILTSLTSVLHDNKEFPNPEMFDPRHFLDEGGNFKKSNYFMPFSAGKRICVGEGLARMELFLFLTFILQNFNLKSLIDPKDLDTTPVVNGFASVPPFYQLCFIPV

The next experiment has as its target T1, BCR-NTRK1 BaF3 cells (Homo sapiens, UniProt P04629).
T1 construct: fused on or other part: P11274 (Breakpoint cluster region protein)
The experiment in a line: BaF3 BCR-NTRK1 cell proliferation assay (ATPlite). The class given is cell-based. The settings on record: read-out: Inhibition of Cell Proliferation IC50, BCR/BaF3 TrkA. How it is done: Compounds are assessed in a variety of cell based assays. For example BaF3 cells engineered with any of BCR-FMS, BCR-KIT, BCR-FLT3, BCR-NTRK1, BCR-NTRK2, and BCR-NTRK3, are used in cell proliferation assays to assess inhibitory activity of Fms, Kit, Flt-3, TrkA, TrkB, and TrkC, respectively. An MV-4-11 (leukemia) cell proliferation assay is used to assess inhibitory activity in Flt-3, and SKNSH (human neuroblastoma) cell proliferation assay is used to assess efficacy of Fms/Trk inhibitors. Additional cells may be assayed similarly to assess the efficacy of Fms/Trk inhibitors, such as MiaPaCa (human pancreatic cancer) and Capan-1 (human pancreatic carcinoma) cells. Reagent and assay conditions are as follows: • BaF3 cells: • Maintained in RPMI containing 10% FBS, 1% PenStrep, 1% NEAA, and 1% L-Glutamine, supplemented with 1 mg/mL G418 and 5% WEHI-CM (or recombinant murine IL-3). • Confluent cells are split 1:50 to 1:100 every 3-4 days. • MV-4-11 cells: • Maintained in Iscove's Modified Dulbecco's Medium containing 10% FBS. • Confluent cells are split 1:4 every 3-4 days. • SKNSH cells: RPMI containing 10% FBS. On day 1, cells are counted, then centrifuged in a conical tube for 5 minutes at 1000 rpm. The supernatant is removed and cells are re-suspended as follows: • BaF3: resuspend in growth media +1 mg/mL G418 (without WEHFIL-3) to 2×10^5 cells/mL. • MV-4-11: resuspend in growth media to 5×10^5 cells/mL. • SKNSH: resuspend in growth media to 2×10^4 cells/mL. The cells are plated (50 μL, 150 μL for SKNSH cells) in each well of a 96-well dish (Corning 3610) and incubated at 37° C. in 5% CO2 overnight, cells plated to a final concentration of cells as follows: • BaF3: 10,000 cells per well. • MV-4-11: 25,000 cells per well. • SKNSH: 3,000 cells per well. On day 2, compound at a maximum concentration of 5 mM is serially diluted 1:3 for a total of 8 point titration with DMSO as a control. A 1 μL aliquot of each dilution point is added to 249 μL growth media and 50 μL is added to a well containing cells, providing 10 μM compound for the maximum concentration point. The cells are incubated for 3 days at 37° C. in 5% CO2. For SKNSH cells, a 0.75 μL aliquot of appropriate dilution in DMSO is added to 150 μL of cells. On day 5, ATPlite 1 step Luminescence Assay System (Perkin Elmer #6016739) is brought to room temperature along with the cell cultures. ATPlite is added to each well as follows: • BaF3: 25 μL per well. • MV-4-11: 40 μL per well. • SKNSH: 20 μL per well. The cells are incubated at room temperature for 10 minutes, then luminescence is read on Safire reader. The measured luminescence correlates directly with cell number, such that the reading as a function of compound concentration is used to determine the IC50 value.
It is understood that the results of these assays may vary as assay conditions are varied. Inhibition levels determined under the conditions described herein represent a relative activity for the compounds tested under the specific conditions employed. The cell based assays are likely to show variability due to the complexity of the system and the sensitivity thereof to any changes in the assay conditions. […] Results for compounds that are tested and show substantially no inhibition below the highest tested concentration are represented as “-” in the tables below. In some instances, the compounds were not tested in all of the assays, or assay results were not valid, as indicated by NA in the tables below.
In general terms: In ATP-based viability assays light output follows the ATP content of the culture.

T1 sequence (P04629 510-781): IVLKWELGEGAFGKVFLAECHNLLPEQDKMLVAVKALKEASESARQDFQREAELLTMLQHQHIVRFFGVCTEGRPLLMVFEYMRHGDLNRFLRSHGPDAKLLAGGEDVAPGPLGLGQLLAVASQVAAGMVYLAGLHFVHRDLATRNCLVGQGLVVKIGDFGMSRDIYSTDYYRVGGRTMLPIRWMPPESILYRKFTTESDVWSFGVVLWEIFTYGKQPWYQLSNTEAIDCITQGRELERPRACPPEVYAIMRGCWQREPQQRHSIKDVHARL

In the case of `Cc1ccc(Nc2ccc(C(=O)c3c[nH]c4ncnc(NC5CCCCC5)c34)c(F)n2)cn1` [Compound P-4111, [4-(cyclohexylamino)-7H-pyrrolo[2,3-d]pyrimidin-5-yl]-[2-fluoro-6-[(6-methyl-3-pyridyl)amino]-3-pyridyl]methanone], the IC50 is 5 to 10 µM at CYP2C19 and < 0.01 µM at BCR-NTRK1 BaF3 cells.
In the case of `COc1ccc(Nc2ccc(C(=O)c3c[nH]c4ncnc(NC(C)C)c34)c(F)n2)cn1` [Compound P-4066, [2-fluoro-6-[(6-methoxy-3-pyridyl)amino]-3-pyridyl]-[4-(isopropylamino)-7H-pyrrolo[2,3-d]pyrimidin-5-yl]methanone], the results for the IC50 on CYP2C19 and on BCR-NTRK1 BaF3 cells were > 10 µM and < 0.01 µM, respectively.
The like results for `O=C(c1ccc(NC2CCC(F)(F)CC2)nc1)c1c[nH]c2ncnc(NCC(F)(F)F)c12` [Compound P-4087, [6-[(4,4-difluorocyclohexyl)amino]-3-pyridyl]-[4-(2,2,2-trifluoroethylamino)-7H-pyrrolo[2,3-d]pyrimidin-5-yl]methanone] were, in that order, > 10 µM and < 1 µM.
`CNc1ncnc2[nH]cc(C(=O)c3ccc(Nc4ccc(C5CC5)nc4)nc3F)c12` [Compound P-4094, [6-[(6-cyclopropyl-3-pyridyl)amino]-2-fluoro-3-pyridyl]-[4-(methylamino)-7H-pyrrolo[2,3-d]pyrimidin-5-yl]methanone]: the IC50 on CYP2C19 is < 5 µM; at BCR-NTRK1 BaF3 cells, < 0.01 µM.
The like results for `COc1ccc(Nc2ccc(C(=O)c3c[nH]c4ncnc(NC5CCC5)c34)c(F)n2)cn1` [Compound P-4076, [4-(cyclobutylamino)-7H-pyrrolo[2,3-d]pyrimidin-5-yl]-[2-fluoro-6-[(6-methoxy-3-pyridyl)amino]-3-pyridyl]methanone] were, in that order, 5 to 10 µM and < 0.01 µM.
Turning to `CCc1ccc(Nc2ccc(C(=O)c3c[nH]c4ncnc(NCC(F)(F)F)c34)c(F)n2)cn1` [Compound P-4120, [6-[(6-ethyl-3-pyridyl)amino]-2-fluoro-3-pyridyl]-[4-(2,2,2-trifluoroethylamino)-7H-pyrrolo[2,3-d]pyrimidin-5-yl]methanone], the IC50 at CYP2C19 was < 5 µM; at BCR-NTRK1 BaF3 cells it was < 0.01 µM.
The like results for `Fc1ccc(Nc2ncc(Cc3c[nH]c4ncc(Cl)cc34)cn2)cc1` [Compound P-3012, [5-(5-Chloro-1H-pyrrolo[2,3-b]pyridin-3-ylmethyl)-pyrimidin-2-yl]-(4-fluoro-phenyl)-amine] were, in that order, > 10 µM and < 1 µM.
The like results for `COc1ccc(Nc2ccc(C(=O)c3c[nH]c4ncnc(NCC(F)(F)F)c34)c(F)n2)cn1` [Compound P-4084, [2-fluoro-6-[(6-methoxy-3-pyridyl)amino]-3-pyridyl]-[4-(2,2,2-trifluoroethylamino)-7H-pyrrolo[2,3-d]pyrimidin-5-yl]methanone] were, in that order, 5 to 10 µM and < 0.1 µM.
For `COc1ccc(Nc2ccc(C(=O)c3c[nH]c4ncnc(NCC5CC5)c34)c(F)n2)cn1` [Compound P-4067, [4-(cyclopropylmethylamino)-7H-pyrrolo[2,3-d]pyrimidin-5-yl]-[2-fluoro-6-[(6-methoxy-3-pyridyl)amino]-3-pyridyl]methanone], the values for the IC50 on CYP2C19 and at BCR-NTRK1 BaF3 cells were 5 to 10 µM and < 0.01 µM, respectively.
For `COc1cncc(Nc2ccc(C(=O)c3c[nH]c4ncnc(NC5CCCCC5)c34)c(F)n2)c1` [Compound P-4104, [4-(cyclohexylamino)-7H-pyrrolo[2,3-d]pyrimidin-5-yl]-[2-fluoro-6-[(5-methoxy-3-pyridyl)amino]-3-pyridyl]methanone], the IC50 on CYP2C19 was 5 to 10 µM; on BCR-NTRK1 BaF3 cells it was < 0.1 µM.
As to `O=C(c1ccc(Nc2ccc(C(F)(F)F)nc2)nc1F)c1c[nH]c2ncnc(NC3CC3)c12` [Compound P-4091, [4-(cyclopropylamino)-7H-pyrrolo[2,3-d]pyrimidin-5-yl]-[2-fluoro-6-[[6-(trifluoromethyl)-3-pyridyl]amino]-3-pyridyl]methanone], the IC50 was > 10 µM at CYP2C19 and < 0.01 µM at BCR-NTRK1 BaF3 cells.
As to `Clc1ccc(Nc2ncc(Cc3c[nH]c4ncc(Cl)cc34)cn2)cc1` [Compound P-3011, (4-Chloro-phenyl)-[5-(5-chloro-1H-pyrrolo[2,3-b]pyridin-3-ylmethyl)-pyrimidin-2-yl]-amine], the values for the IC50 at CYP2C19 and on BCR-NTRK1 BaF3 cells were > 10 µM and < 1 µM, respectively.
Regarding `Cc1ccc(Nc2ccc(C(=O)c3c[nH]c4ncnc(NCC(F)(F)F)c34)c(F)n2)cn1` [Compound P-4112, [2-fluoro-6-[(6-methyl-3-pyridyl)amino]-3-pyridyl]-[4-(2,2,2-trifluoroethylamino)-7H-pyrrolo[2,3-d]pyrimidin-5-yl]methanone], the results for the IC50 at CYP2C19 and at BCR-NTRK1 BaF3 cells were < 5 µM and < 0.1 µM, respectively.
The matching figures for `O=C(c1ccc(Nc2ccc(C3CC3)nc2)nc1F)c1c[nH]c2ncnc(NC3CC3)c12` [Compound P-4093, [4-(cyclopropylamino)-7H-pyrrolo[2,3-d]pyrimidin-5-yl]-[6-[(6-cyclopropyl-3-pyridyl)amino]-2-fluoro-3-pyridyl]methanone]: > 10 µM and < 0.01 µM.
For `COc1ccc(Nc2ccc(C(=O)c3c[nH]c4ncnc(NC5CCCC5)c34)c(F)n2)cn1` [Compound P-4075, [4-(cyclopentylamino)-7H-pyrrolo[2,3-d]pyrimidin-5-yl]-[2-fluoro-6-[(6-methoxy-3-pyridyl)amino]-3-pyridyl]methanone], the IC50 was 5 to 10 µM on CYP2C19 and < 0.01 µM on BCR-NTRK1 BaF3 cells.
The like results for `COc1ccc(Nc2ccc(C(=O)c3c[nH]c4ncnc(NC5CCCCC5)c34)c(F)n2)cn1` [Compound P-4082, [4-(cyclohexylamino)-7H-pyrrolo[2,3-d]pyrimidin-5-yl]-[2-fluoro-6-[(6-methoxy-3-pyridyl)amino]-3-pyridyl]methanone] were, in that order, > 10 µM and < 0.01 µM.
With `CCc1ccc(Nc2ccc(C(=O)c3c[nH]c4ncnc(NCC(C)C)c34)c(F)n2)cn1` [Compound P-4121, [6-[(6-ethyl-3-pyridyl)amino]-2-fluoro-3-pyridyl]-[4-(isobutylamino)-7H-pyrrolo[2,3-d]pyrimidin-5-yl]methanone], the IC50 is 5 to 10 µM on CYP2C19 and < 0.01 µM on BCR-NTRK1 BaF3 cells.
Consider `CCCNc1ncnc2[nH]cc(C(=O)c3ccc(Nc4ccc(CC)nc4)nc3F)c12` [Compound P-4122, [6-[(6-ethyl-3-pyridyl)amino]-2-fluoro-3-pyridyl]-[4-(propylamino)-7H-pyrrolo[2,3-d]pyrimidin-5-yl]methanone], for which the IC50 at CYP2C19 was > 10 µM; at BCR-NTRK1 BaF3 cells, < 0.01 µM.
